According to paper PMC11791039, “A split intein and split luciferase-coupled system for detecting protein-protein interactions” (Molecular Systems Biology, 2024):
Several values for one entry are separate records, joined by “and”; a condition that tells them apart may be missing. Equal values may be shown once.

Key:
Type in all cases: cell-based
EGFR(WT)/SHC1 = target: T1, EGFR(WT)/SHC1 (Homo sapiens, UniProt P00533); experiment: SIMPL2 assay EGFR(WT)/SHC1; settings: for SIMPL2 signal, WT (Fig. 3D): replicates 1-4
T1 construct: β10-IN (tNLuc β10 peptide + GP41-1 split intein N fragment) (C); V5; expressed in transfected cells

MDM2/MDM4 interaction = target: T2, MDM2/MDM4 interaction (Homo sapiens, UniProt O15151+Q00987); experiment: SIMPL2 assay MDM2/MDM4; settings: for SIMPL2 signal, MDM2/MDM4 (Fig. 4A): replicates 1-4
T2 construct: β10-IN (tNLuc β10 peptide + GP41-1 split intein N fragment) (C); V5; IC-β9 (GP41-1 split intein C fragment + tNLuc β9 peptide) (N); FLAG; expressed in transfected cells
Protocol: We next tested the system with molecular glues, which are small molecule compounds that induce target protein interaction. […] To clarify, the two protein molecules are anchored together through a pair of dimerized RO-5963 molecules. […] Therefore, its binding kinetics display a monophasic change.
Figure 4 Evaluation of SIMPL2 as a drug discovery tool using molecular glue and PROTACs. […] Samples were measured and normalized as described in Materials and Methods. […] The cells were then subjected to SIMPL2 luciferase measurement, and the raw values are plotted.
Stable cells of target protein pair were created using Cas9 CRISPR. To characterize PPI modulators, the cells were seeded in 384 well plate (10,000 cells/well) and incubated for 5 h. […] Average signal of wells without either deoxycycline or compound treatment was used as blank or ‘floor’ signal (SF). The average signal of wells with deoxycycline treatment but without compound treatment was used as maximal interaction or ‘ceiling’ (SC). SIMPL2 reading of each sample (Ssample) was normalized according to the formula S^*sample = (Ssample– SF)/(SC– SF) x 100%, in which S^*sample stands for normalized signal. The normalized data of inhibitor experiments were fitted into a four-parameter inhibitor-response model.

control = target: T3, control (Homo sapiens, UniProt P01116, G12C); experiment: SIMPL2 assay, control of Fig. 3B-D; settings: replicates 1-4
T3 construct: IC-β9 (GP41-1 split intein C fragment + tNLuc β9 peptide) (N); FLAG; expressed in transfected cells

EGFR(L858R)/SHC1 = target: T4, EGFR(L858R)/SHC1 (Homo sapiens, UniProt P00533, L858R); experiment: SIMPL2 assay EGFR(L858R)/SHC1; settings: for SIMPL2 signal, L858R (Fig. 3D): replicates 1-4
T4 construct: β10-IN (tNLuc β10 peptide + GP41-1 split intein N fragment) (C); V5; expressed in transfected cells

T2 sequence (Q00987 whole entry, the tested form may be a part): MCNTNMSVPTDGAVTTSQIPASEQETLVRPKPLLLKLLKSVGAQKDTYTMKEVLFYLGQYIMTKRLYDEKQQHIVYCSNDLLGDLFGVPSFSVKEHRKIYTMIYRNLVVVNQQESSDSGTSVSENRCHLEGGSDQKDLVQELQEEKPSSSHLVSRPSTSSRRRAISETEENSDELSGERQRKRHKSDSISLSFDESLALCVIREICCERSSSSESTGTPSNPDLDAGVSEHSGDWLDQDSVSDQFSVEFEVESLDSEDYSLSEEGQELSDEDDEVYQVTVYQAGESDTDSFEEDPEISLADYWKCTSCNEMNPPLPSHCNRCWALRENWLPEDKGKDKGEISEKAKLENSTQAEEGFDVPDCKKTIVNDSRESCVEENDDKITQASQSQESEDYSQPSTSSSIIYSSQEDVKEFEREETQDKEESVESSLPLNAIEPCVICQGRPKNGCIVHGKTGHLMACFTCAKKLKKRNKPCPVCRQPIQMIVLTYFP
T2 sequence (O15151 whole entry, the tested form may be a part): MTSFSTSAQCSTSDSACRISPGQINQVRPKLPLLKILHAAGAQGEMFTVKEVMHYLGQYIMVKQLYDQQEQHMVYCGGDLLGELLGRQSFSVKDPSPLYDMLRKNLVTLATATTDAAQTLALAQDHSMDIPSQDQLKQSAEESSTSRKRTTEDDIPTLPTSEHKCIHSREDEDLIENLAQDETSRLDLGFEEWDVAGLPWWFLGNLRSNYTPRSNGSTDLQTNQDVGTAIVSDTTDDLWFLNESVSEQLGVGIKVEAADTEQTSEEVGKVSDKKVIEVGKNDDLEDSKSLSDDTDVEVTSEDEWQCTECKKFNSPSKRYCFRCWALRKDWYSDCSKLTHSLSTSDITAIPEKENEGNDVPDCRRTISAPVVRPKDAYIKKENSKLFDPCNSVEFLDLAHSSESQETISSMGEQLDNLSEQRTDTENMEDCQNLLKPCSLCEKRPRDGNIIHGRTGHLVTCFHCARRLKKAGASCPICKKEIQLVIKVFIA
T3 sequence (P01116 1-185 isoform P01116-2 G12C limits assumed): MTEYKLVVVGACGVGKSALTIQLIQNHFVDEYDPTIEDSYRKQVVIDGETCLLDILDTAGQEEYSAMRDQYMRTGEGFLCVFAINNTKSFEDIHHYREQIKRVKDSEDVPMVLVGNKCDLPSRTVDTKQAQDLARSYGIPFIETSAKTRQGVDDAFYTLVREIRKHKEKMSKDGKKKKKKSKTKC

Cn1cnc2c(F)c(Nc3ccc(Br)cc3Cl)c(C(=O)NOCCO)cc21 [selumetinib, Selumetinib]
SIMPL2 signal, WT (Fig. 3D) (EGFR(WT)/SHC1; AZD6244 6.4e-6 uM): 117.981 and 128.314 and 91.3721 and 97.094 | SIMPL2 signal, WT (Fig. 3D) (EGFR(WT)/SHC1; AZD6244 3.2e-5 uM): 96.8718 and 91.2055 and 86.3725 and 98.1494 | SIMPL2 signal, WT (Fig. 3D) (EGFR(WT)/SHC1; AZD6244 0.00016 uM): 96.2607 and 97.2051 and 90.2055 and 118.204 | SIMPL2 signal, WT (Fig. 3D) (EGFR(WT)/SHC1; AZD6244 0.0008 uM): 91.2055 and 95.2608 and 88.9279 and 100.427 | SIMPL2 signal, WT (Fig. 3D) (EGFR(WT)/SHC1; AZD6244 0.004 uM): 91.5388 and 82.4283 and 71.7068 and 83.0949 | SIMPL2 signal, WT (Fig. 3D) (EGFR(WT)/SHC1; AZD6244 0.02 uM): 79.8174 and 81.2062 and 88.8723 and 103.205 | SIMPL2 signal, WT (Fig. 3D) (EGFR(WT)/SHC1; AZD6244 0.1 uM): 113.815 and 112.593 and 100.427 and 98.6494 | SIMPL2 signal, WT (Fig. 3D) (EGFR(WT)/SHC1; AZD6244 0.5 uM): 103.76 and 101.094 and 97.3717 and 91.7054 | inhibition of EGFR(WT)/SHC1 interaction signal (EGFR(WT)/SHC1; doxycycline + compound 16 h): no effect | induction of MDM2/MDM4 interaction (MDM2/MDM4 interaction; 16 h with doxycycline): not observed | SIMPL2 signal, MDM2/MDM4 (Fig. 4A) (MDM2/MDM4 interaction; AZD6244 0.013717 uM): 105.342 and 94.3499 and 91.2095 and 111.623 | SIMPL2 signal, MDM2/MDM4 (Fig. 4A) (MDM2/MDM4 interaction; AZD6244 0.041152 uM): 84.4799 and 83.2835 and 83.9564 and 94.7238 | SIMPL2 signal, MDM2/MDM4 (Fig. 4A) (MDM2/MDM4 interaction; AZD6244 0.37037 uM): 85.1528 and 73.4882 and 95.2472 and 81.3394 | SIMPL2 signal, MDM2/MDM4 (Fig. 4A) (MDM2/MDM4 interaction; AZD6244 1.11111 uM): 73.7125 and 92.2563 and 82.1619 and 85.5267 | SIMPL2 signal, MDM2/MDM4 (Fig. 4A) (MDM2/MDM4 interaction; AZD6244 3.33333 uM): 70.0486 and 88.8915 and 67.3568 and 90.3869 | SIMPL2 signal, MDM2/MDM4 (Fig. 4A) (MDM2/MDM4 interaction; AZD6244 10 uM): 78.4232 and 90.5365 and 82.0123 and 90.6113 | SIMPL2 signal, control (Fig. 3D) (control; AZD6244 6.4e-6 uM): 109.596 and 130.088 | SIMPL2 signal, control (Fig. 3D) (control; AZD6244 3.2e-5 uM): 98.632 and 104.891 and 97.5584 and 100.637 | SIMPL2 signal, control (Fig. 3D) (control; AZD6244 0.00016 uM): 97.4795 and 101.781 and 98.0162 and 96.0508 | SIMPL2 signal, control (Fig. 3D) (control; AZD6244 0.0008 uM): 100.171 and 103.684 and 97.3453 and 101.418 | SIMPL2 signal, control (Fig. 3D) (control; AZD6244 0.004 uM): 92.396 and 92.6013 and 98.3715 | SIMPL2 signal, control (Fig. 3D) (control; AZD6244 0.02 uM): 95.5614 | SIMPL2 signal, control (Fig. 3D) (control; AZD6244 0.1 uM): 91.3936 and 91.141 | SIMPL2 signal, control (Fig. 3D) (control; AZD6244 0.5 uM): 89.4044 | SIMPL2 signal, L858R (Fig. 3D) (EGFR(L858R)/SHC1; AZD6244 6.4e-6 uM): 107.975 and 92.9525 and 107.024 and 103.355 | SIMPL2 signal, L858R (Fig. 3D) (EGFR(L858R)/SHC1; AZD6244 3.2e-5 uM): 88.2795 and 92.9261 and 92.1077 and 96.4375 | SIMPL2 signal, L858R (Fig. 3D) (EGFR(L858R)/SHC1; AZD6244 0.00016 uM): 108.688 and 85.5073 and 82.6824 and 92.9525 | SIMPL2 signal, L858R (Fig. 3D) (EGFR(L858R)/SHC1; AZD6244 0.0008 uM): 91.1572 and 94.7742 and 86.1145 and 84.24 | SIMPL2 signal, L858R (Fig. 3D) (EGFR(L858R)/SHC1; AZD6244 0.004 uM): 85.9825 and 79.039 and 94.0877 and 83.58 | SIMPL2 signal, L858R (Fig. 3D) (EGFR(L858R)/SHC1; AZD6244 0.02 uM): 89.8635 and 58.7628 and 116.819 and 92.2661 | SIMPL2 signal, L858R (Fig. 3D) (EGFR(L858R)/SHC1; AZD6244 0.1 uM): 96.4375 and 99.3416 and 96.3319 and 106.18 | SIMPL2 signal, L858R (Fig. 3D) (EGFR(L858R)/SHC1; AZD6244 0.5 uM): 85.5073 and 101.612 and 96.3583 and 99.632 | effect on EGFR(L858R)/SHC1 interaction signal (EGFR(L858R)/SHC1; doxycycline + compound 16 h): no effect
